Measured values from ChEMBL document CHEMBL4507274 (2021).

Tests used:
[1] = test system: ALK tyrosine kinase receptor (Homo sapiens), Q9UM73 [C1156Y]; conditions: Compound concentration 100.0 nM
[2] = target: Mitogen-activated protein kinase kinase kinase 5 (Homo sapiens) (UniProt Q99683); conditions: Compound concentration 100.0 nM
[3] = target: Aurora kinase C (Homo sapiens) (UniProt Q9UQB9); conditions: Compound concentration 100.0 nM
[4] = target: Tyrosine-protein kinase receptor UFO (Homo sapiens) (UniProt P30530); conditions: Compound concentration 100.0 nM
[5] = target: Calcium/calmodulin-dependent protein kinase type 1B (Homo sapiens) (UniProt Q6P2M8); conditions: Compound concentration 100.0 nM
[6] = target: Calcium/calmodulin-dependent protein kinase kinase 2 (Homo sapiens) (UniProt Q96RR4); conditions: Compound concentration 100.0 nM
[7] = target: Cyclin-dependent kinase 5 (Homo sapiens) (UniProt Q00535); conditions: Compound concentration 100.0 nM
[8] = target: Cyclin-dependent kinase-like 1 (Homo sapiens) (UniProt Q00532); conditions: Compound concentration 100.0 nM
[9] = target: Casein kinase I isoform epsilon (Homo sapiens) (UniProt P49674); conditions: Compound concentration 100.0 nM
[10] = target: Death-associated protein kinase 1 (Homo sapiens) (UniProt P53355); conditions: Compound concentration 100.0 nM
[11] = target: Eukaryotic translation initiation factor 2-alpha kinase 1 (Homo sapiens) (UniProt Q9BQI3); conditions: Compound concentration 100.0 nM
[12] = target: Ephrin type-A receptor 8 (Homo sapiens) (UniProt P29322); conditions: Compound concentration 100.0 nM
[13] = target: Receptor tyrosine-protein kinase erbB-3 (Homo sapiens) (UniProt P21860); conditions: Compound concentration 100.0 nM
[14] = target: Mitogen-activated protein kinase 6 (Homo sapiens) (UniProt Q16659); conditions: Compound concentration 100.0 nM
[15] = target: Fibroblast growth factor receptor 1 (Homo sapiens) (UniProt P11362); conditions: Compound concentration 100.0 nM
[16] = test system: Receptor-type tyrosine-protein kinase FLT3 (Homo sapiens), P36888 [D835H]; conditions: Compound concentration 100.0 nM
[17] = target: Vascular endothelial growth factor receptor 3 (Homo sapiens) (UniProt P35916); conditions: Compound concentration 100.0 nM
[18] = target: Serine/threonine-protein kinase haspin (Homo sapiens) (UniProt Q8TF76); conditions: Compound concentration 100.0 nM
[19] = target: Interleukin-1 receptor-associated kinase 1 (Homo sapiens) (UniProt P51617); conditions: Compound concentration 100.0 nM
[20] = target: Tyrosine-protein kinase JAK1 (Homo sapiens) (UniProt P23458); conditions: Compound concentration 100.0 nM
[21] = target: Mitogen-activated protein kinase 10 (Homo sapiens) (UniProt P53779); conditions: Compound concentration 100.0 nM
[22] = target: Mitogen-activated protein kinase kinase kinase kinase 5 (Homo sapiens) (UniProt Q9Y4K4); conditions: Compound concentration 100.0 nM
[23] = target: Dual specificity mitogen-activated protein kinase kinase 4 (Homo sapiens) (UniProt P45985); conditions: Compound concentration 100.0 nM
[24] = target: Hepatocyte growth factor receptor (Homo sapiens) (UniProt P08581); conditions: Compound concentration 100.0 nM
[25] = target: MAP kinase-interacting serine/threonine-protein kinase 1 (Homo sapiens) (UniProt Q9BUB5); conditions: Compound concentration 100.0 nM
[26] = target: Mitogen-activated protein kinase kinase kinase 10 (Homo sapiens) (UniProt Q02779); conditions: Compound concentration 100.0 nM
[27] = target: Serine/threonine-protein kinase Nek10 (Homo sapiens) (UniProt Q6ZWH5); conditions: Compound concentration 100.0 nM
[28] = target: Mitogen-activated protein kinase 14 (Homo sapiens) (UniProt Q16539); conditions: Compound concentration 100.0 nM
[29] = target: T1, Mitogen-activated protein kinase 12 (Homo sapiens) (UniProt P53778); conditions: Compound concentration 100.0 nM
T1 sequence (whole entry): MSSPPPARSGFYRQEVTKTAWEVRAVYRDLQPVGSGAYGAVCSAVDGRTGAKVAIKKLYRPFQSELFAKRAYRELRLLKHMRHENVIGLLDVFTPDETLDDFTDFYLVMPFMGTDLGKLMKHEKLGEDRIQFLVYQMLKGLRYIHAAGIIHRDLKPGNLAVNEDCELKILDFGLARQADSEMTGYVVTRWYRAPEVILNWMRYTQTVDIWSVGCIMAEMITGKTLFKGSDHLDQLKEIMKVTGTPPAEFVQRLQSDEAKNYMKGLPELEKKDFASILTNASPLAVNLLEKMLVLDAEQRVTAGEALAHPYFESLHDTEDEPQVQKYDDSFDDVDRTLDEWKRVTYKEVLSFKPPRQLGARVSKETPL

[30] = target: Calcium-dependent protein kinase 1 (Plasmodium falciparum) (UniProt P62344); conditions: Compound concentration 100.0 nM
[31] = target: Protein kinase C eta type (Homo sapiens) (UniProt P24723); conditions: Compound concentration 100.0 nM
[32] = target: Serine/threonine-protein kinase RIO3 (Homo sapiens) (UniProt O14730); conditions: Compound concentration 100.0 nM
[33] = target: Ribosomal protein S6 kinase alpha-6 (Homo sapiens) (UniProt Q9UK32); conditions: Compound concentration 100.0 nM
[34] = target: Serine/threonine-protein kinase SIK2 (Homo sapiens) (UniProt Q9H0K1); conditions: Compound concentration 100.0 nM
[35] = target: Serine/threonine-protein kinase 36 (Homo sapiens) (UniProt Q9NRP7); conditions: Compound concentration 100.0 nM
[36] = target: Angiopoietin-1 receptor (Homo sapiens) (UniProt Q02763); conditions: Compound concentration 100.0 nM
[37] = target: Transient receptor potential cation channel subfamily M member 6 (Homo sapiens) (UniProt Q9BX84); conditions: Compound concentration 100.0 nM
[38] = target: 5-hydroxytryptamine receptor 1D (Homo sapiens) (UniProt P28221); conditions: Compound concentration 10.0 uM
[39] = target: 5-hydroxytryptamine receptor 6 (Homo sapiens) (UniProt P50406); conditions: Compound concentration 10.0 uM
[40] = target: Mu-type opioid receptor (Homo sapiens) (UniProt P35372); conditions: Compound concentration 10.0 uM
[41] = target: Muscarinic acetylcholine receptor M5 (Homo sapiens) (UniProt P08912); conditions: Compound concentration 10.0 uM
Chain of Muscarinic acetylcholine receptor M5 (Homo sapiens) (P08912 whole entry): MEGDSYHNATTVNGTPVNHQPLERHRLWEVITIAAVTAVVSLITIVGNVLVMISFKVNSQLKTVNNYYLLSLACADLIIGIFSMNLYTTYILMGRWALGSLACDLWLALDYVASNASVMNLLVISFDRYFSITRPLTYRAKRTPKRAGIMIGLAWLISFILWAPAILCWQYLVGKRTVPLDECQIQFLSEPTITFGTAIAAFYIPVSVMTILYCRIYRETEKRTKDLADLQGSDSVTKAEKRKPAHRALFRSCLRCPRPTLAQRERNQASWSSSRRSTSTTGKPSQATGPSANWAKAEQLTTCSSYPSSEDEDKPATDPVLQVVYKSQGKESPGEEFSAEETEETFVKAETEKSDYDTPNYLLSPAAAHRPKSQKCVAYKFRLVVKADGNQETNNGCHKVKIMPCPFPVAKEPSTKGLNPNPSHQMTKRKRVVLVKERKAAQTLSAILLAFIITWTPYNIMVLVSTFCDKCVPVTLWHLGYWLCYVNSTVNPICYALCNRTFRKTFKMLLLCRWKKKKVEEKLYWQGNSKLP

Chain of Ephrin type-A receptor 8 (Homo sapiens) (P29322 whole entry): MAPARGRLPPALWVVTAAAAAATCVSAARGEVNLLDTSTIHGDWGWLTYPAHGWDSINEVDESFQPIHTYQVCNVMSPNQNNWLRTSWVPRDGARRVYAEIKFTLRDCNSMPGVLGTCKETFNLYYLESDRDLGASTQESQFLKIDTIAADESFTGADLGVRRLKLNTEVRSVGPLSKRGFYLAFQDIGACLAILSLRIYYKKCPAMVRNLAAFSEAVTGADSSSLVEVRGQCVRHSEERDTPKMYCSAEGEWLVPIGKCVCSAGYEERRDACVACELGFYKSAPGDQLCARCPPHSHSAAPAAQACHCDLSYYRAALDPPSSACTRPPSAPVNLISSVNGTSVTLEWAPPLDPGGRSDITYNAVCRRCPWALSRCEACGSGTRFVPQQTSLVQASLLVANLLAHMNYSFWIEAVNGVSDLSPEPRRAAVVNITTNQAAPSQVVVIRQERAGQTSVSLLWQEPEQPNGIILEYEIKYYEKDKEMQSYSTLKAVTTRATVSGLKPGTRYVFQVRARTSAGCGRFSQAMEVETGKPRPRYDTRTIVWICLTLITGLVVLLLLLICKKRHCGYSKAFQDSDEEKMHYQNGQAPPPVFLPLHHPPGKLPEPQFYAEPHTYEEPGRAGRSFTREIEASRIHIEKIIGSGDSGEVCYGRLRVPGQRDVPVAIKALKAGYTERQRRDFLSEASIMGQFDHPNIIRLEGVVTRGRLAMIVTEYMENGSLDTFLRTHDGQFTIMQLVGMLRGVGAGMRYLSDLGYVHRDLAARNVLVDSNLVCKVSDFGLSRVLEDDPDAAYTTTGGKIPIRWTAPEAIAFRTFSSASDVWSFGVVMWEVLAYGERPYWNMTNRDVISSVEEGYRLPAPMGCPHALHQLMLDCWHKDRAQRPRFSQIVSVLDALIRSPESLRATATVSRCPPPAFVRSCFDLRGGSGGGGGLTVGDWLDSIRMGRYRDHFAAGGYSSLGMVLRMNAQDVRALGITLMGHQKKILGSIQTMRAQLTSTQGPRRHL
Chain of Mitogen-activated protein kinase kinase kinase kinase 5 (Homo sapiens) (Q9Y4K4 whole entry, looked up): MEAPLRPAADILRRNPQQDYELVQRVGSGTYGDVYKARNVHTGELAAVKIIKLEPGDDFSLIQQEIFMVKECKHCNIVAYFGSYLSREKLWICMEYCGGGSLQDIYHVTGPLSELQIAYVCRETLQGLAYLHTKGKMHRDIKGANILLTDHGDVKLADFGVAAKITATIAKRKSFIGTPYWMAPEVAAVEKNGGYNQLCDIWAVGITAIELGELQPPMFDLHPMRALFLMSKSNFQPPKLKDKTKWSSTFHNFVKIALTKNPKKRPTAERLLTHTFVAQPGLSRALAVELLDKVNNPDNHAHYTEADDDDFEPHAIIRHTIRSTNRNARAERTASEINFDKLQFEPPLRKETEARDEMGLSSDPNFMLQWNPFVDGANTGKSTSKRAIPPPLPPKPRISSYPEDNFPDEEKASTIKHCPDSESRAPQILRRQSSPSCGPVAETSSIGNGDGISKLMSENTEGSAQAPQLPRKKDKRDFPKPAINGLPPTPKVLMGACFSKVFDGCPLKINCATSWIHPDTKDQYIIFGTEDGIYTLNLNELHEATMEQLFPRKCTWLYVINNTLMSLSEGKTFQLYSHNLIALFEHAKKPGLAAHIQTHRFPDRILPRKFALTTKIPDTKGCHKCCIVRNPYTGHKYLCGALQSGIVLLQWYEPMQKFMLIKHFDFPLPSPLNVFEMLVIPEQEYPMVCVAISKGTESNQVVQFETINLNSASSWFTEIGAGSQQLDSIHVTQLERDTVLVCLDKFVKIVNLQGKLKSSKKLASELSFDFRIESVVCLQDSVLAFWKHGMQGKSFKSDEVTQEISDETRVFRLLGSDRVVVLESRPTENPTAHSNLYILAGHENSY
Chain of Hepatocyte growth factor receptor (Homo sapiens) (P08581 whole entry): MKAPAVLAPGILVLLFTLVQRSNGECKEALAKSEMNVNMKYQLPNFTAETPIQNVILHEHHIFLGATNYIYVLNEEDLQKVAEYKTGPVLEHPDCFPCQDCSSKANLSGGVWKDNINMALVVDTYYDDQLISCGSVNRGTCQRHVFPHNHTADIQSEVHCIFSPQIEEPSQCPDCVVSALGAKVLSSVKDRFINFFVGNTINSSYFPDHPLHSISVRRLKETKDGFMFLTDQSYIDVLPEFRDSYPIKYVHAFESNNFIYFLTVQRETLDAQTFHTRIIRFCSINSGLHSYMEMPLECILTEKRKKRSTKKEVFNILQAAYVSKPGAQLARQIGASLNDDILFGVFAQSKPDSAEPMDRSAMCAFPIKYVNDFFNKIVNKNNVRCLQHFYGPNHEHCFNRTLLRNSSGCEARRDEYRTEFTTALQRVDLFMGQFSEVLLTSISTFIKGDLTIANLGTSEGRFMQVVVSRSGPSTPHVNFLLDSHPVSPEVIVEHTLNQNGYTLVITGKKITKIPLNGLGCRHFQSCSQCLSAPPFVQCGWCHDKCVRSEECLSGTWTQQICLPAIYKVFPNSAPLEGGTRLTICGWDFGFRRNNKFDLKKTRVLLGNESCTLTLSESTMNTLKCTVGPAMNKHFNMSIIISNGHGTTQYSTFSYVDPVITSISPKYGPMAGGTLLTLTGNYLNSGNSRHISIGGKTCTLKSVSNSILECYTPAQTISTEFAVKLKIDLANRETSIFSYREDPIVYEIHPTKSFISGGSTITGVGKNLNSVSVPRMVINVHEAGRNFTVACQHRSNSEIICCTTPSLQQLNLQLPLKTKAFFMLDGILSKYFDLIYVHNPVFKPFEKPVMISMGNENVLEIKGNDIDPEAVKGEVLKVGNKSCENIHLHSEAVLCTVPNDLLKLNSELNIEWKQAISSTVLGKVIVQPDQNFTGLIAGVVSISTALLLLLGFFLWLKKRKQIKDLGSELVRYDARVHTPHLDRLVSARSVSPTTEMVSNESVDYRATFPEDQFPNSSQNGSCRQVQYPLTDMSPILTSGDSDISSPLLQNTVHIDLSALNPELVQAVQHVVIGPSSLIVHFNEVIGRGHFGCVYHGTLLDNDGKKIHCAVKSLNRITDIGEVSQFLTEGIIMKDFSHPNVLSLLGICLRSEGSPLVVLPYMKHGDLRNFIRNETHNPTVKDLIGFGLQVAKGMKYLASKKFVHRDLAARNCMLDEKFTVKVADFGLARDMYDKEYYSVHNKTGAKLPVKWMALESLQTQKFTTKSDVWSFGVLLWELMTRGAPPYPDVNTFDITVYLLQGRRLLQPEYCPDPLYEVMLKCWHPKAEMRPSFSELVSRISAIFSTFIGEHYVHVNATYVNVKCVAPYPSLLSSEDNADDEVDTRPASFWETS
Chain of Serine/threonine-protein kinase haspin (Homo sapiens) (Q8TF76 whole entry): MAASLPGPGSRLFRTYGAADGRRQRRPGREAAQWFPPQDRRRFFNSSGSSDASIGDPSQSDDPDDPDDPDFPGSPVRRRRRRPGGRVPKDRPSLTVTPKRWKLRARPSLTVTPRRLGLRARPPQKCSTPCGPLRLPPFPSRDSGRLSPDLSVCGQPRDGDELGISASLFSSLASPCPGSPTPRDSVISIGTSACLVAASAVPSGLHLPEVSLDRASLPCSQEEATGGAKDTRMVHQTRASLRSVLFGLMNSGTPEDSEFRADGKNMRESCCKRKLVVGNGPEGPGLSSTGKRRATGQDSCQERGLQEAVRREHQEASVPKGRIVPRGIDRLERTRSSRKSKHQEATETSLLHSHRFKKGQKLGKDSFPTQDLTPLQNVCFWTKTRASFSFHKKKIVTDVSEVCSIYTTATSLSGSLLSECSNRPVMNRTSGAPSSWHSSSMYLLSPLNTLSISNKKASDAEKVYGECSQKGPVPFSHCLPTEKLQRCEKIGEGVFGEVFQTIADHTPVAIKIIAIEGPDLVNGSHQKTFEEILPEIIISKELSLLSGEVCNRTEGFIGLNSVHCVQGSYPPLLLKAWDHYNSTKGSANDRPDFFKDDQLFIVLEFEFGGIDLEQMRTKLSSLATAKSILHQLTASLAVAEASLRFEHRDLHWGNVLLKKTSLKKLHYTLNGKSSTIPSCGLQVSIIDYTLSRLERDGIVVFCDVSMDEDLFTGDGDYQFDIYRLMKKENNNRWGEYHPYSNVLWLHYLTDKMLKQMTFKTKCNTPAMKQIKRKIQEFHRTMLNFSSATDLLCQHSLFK
Chain of Casein kinase I isoform epsilon (Homo sapiens) (P49674 whole entry, looked up, canonical isoform): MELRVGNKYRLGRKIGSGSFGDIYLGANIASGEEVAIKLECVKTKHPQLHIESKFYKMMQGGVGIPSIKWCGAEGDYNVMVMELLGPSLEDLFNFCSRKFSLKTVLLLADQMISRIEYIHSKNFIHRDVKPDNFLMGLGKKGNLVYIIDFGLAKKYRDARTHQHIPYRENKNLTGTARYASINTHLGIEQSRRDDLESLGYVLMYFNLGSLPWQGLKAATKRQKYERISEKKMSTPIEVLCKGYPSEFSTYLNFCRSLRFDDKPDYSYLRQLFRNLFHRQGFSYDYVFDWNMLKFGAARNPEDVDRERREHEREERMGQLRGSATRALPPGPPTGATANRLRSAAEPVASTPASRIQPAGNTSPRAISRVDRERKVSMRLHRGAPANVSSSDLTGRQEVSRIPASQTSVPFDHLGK

Cc1c[nH]c2nccc(Oc3c(F)cc(Nc4cc(Cl)nc(N)n4)cc3F)c12 [BAY-549]
inactive: residual activity [1] 100% | residual activity [2] 98% | residual activity [3] 72% | residual activity [4] 93% | residual activity [5] 94% | residual activity [6] 98% | residual activity [7] 94% | residual activity [8] 100% | residual activity [9] 64% | residual activity [10] 98% | residual activity [11] 77% | residual activity [12] 87% | residual activity [13] 65% | residual activity [14] 95% | residual activity [15] 100% | residual activity [16] 100% | residual activity [17] 98% | residual activity [18] 61% | residual activity [19] 90% | residual activity [20] 80% | residual activity [21] 81% | residual activity [22] 93% | residual activity [23] 99% | residual activity [24] 83% | residual activity [25] 100% | residual activity [26] 100% | residual activity [27] 75% | residual activity [28] 100% | residual activity [29] 100% | residual activity [30] 91% | residual activity [31] 74% | residual activity [32] 93% | residual activity [33] 99% | residual activity [34] 100% | residual activity [35] 85% | residual activity [36] 95% | residual activity [37] 83% | inhibition [38] 45% | inhibition [39] -1.5% | inhibition [40] -0.03% | inhibition [41] -3.6%

Cn1cc(Cl)c2c(Oc3c(F)cc(Nc4cc(Cl)nc(N)n4)cc3F)ccnc21 [BAY-4900]
inactive: residual activity [1] 100% | residual activity [2] 97% | residual activity [3] 97% | residual activity [4] 100% | residual activity [5] 90% | residual activity [6] 99% | residual activity [7] 100% | residual activity [8] 100% | residual activity [9] 98% | residual activity [10] 100% | residual activity [11] 100% | residual activity [12] 100% | residual activity [13] 75% | residual activity [14] 100% | residual activity [15] 100% | residual activity [16] 78% | residual activity [17] 96% | residual activity [18] 74% | residual activity [19] 95% | residual activity [20] 89% | residual activity [21] 80% | residual activity [22] 91% | residual activity [23] 80% | residual activity [24] 90% | residual activity [25] 100% | residual activity [26] 100% | residual activity [27] 66% | residual activity [28] 100% | residual activity [29] 100% | residual activity [30] 88% | residual activity [31] 98% | residual activity [32] 93% | residual activity [33] 100% | residual activity [34] 100% | residual activity [35] 93% | residual activity [36] 100% | residual activity [37] 77% | inhibition [38] -5.84% | inhibition [39] -1.64% | inhibition [40] -9.98% | inhibition [41] 3.3%
